Results taken from the NIST ThermoML archive (doi:10.1021/acs.jced.7b00750).

How the values were obtained:
[1] = 100 kPa, Liquid, Vibrating tube method
[2] = xn = mol fraction of the nth substance listed; details: 100 kPa, Liquid, Vibrating tube method, x2 = 0

O [water]
[1]
Details | mass density [kg/m3]
274.15 K | 999.899
275.15 K | 999.94
276.15 K | 999.964
277.15 K | 999.972
278.15 K | 999.964
279.15 K | 999.94
280.15 K | 999.901
281.15 K | 999.848
282.15 K | 999.781
283.15 K | 999.699
323.15 K | 988.03
333.15 K | 983.191

O [water] + CNC(N)=O
[2]
Details | mass density [kg/m3]
274.15 K | 999.899
275.15 K | 999.94
276.15 K | 999.964
277.15 K | 999.972
278.15 K | 999.964
279.15 K | 999.94
280.15 K | 999.901
281.15 K | 999.848
282.15 K | 999.781
283.15 K | 999.699
323.15 K | 988.03
333.15 K | 983.191
